According to the CheMixHub viscosity set:
± gives the uncertainty stated by the source.

Test: xn = mol fraction of the nth substance listed

C=CC(=O)OC + CCCCCCC
viscosity [mPa·s], 100 kPa
Conditions | x1 = 0.1065 | x1 = 0.2053 | x1 = 0.3084 | x1 = 0.4061 | x1 = 0.5019 | x1 = 0.6048 | x1 = 0.703 | x1 = 0.8014 | x1 = 0.9456
303.15 K | 0.367 ± 0.037 | 0.361 ± 0.036 | 0.36 ± 0.036 | 0.362 ± 0.036 | 0.367 ± 0.037 | 0.375 ± 0.038 | 0.387 ± 0.039 | 0.402 ± 0.04 | 0.426 ± 0.043
308.15 K | 0.337 ± 0.034 | 0.333 ± 0.033 | 0.332 ± 0.033 | 0.336 ± 0.034 | 0.343 ± 0.034 | 0.353 ± 0.035 | 0.365 ± 0.037 | 0.381 ± 0.038 | 0.406 ± 0.041
313.15 K | 0.329 ± 0.033 | 0.326 ± 0.033 | 0.325 ± 0.033 | 0.326 ± 0.033 | 0.332 ± 0.033 | 0.341 ± 0.034 | 0.352 ± 0.035 | 0.366 ± 0.037 | 0.388 ± 0.039

CC(C)CO + CCCCCCC
303.15 K, 101.33 kPa
Conditions | viscosity [mPa·s]
x2 = 0.1513 | 1.552 ± 0.16
x2 = 0.3016 | 1.023 ± 0.1
x2 = 0.4515 | 0.724 ± 0.073
x2 = 0.6022 | 0.562 ± 0.056
x2 = 0.7374 | 0.478 ± 0.048
x2 = 0.8984 | 0.421 ± 0.042

CCCCCC + CCCCCCC
Conditions | viscosity [mPa·s]
298 K, 101.33 kPa, x2 = 0.1005 | 0.3132 ± 0.0045
298 K, 101.33 kPa, x2 = 0.1957 | 0.3202 ± 0.0046
298 K, 101.33 kPa, x2 = 0.3837 | 0.3365 ± 0.0048
298 K, 101.33 kPa, x2 = 0.508 | 0.3471 ± 0.0049
298 K, 101.33 kPa, x2 = 0.6023 | 0.3554 ± 0.005
298 K, 101.33 kPa, x2 = 0.7154 | 0.3649 ± 0.0051
298 K, 101.33 kPa, x2 = 0.8009 | 0.3727 ± 0.0052
298 K, 101.33 kPa, x2 = 0.8944 | 0.3801 ± 0.0053
298.15 K, 101 kPa, x2 = 0.2069 | 0.3145 ± 0.004
298.15 K, 101 kPa, x2 = 0.2091 | 0.315 ± 0.004
298.15 K, 101 kPa, x2 = 0.2351 | 0.316 ± 0.004
298.15 K, 101 kPa, x2 = 0.2355 | 0.316 ± 0.004
298.15 K, 101 kPa, x2 = 0.2614 | 0.317 ± 0.004
298.15 K, 101 kPa, x2 = 0.2637 | 0.317 ± 0.004
298.15 K, 101 kPa, x2 = 0.2921 | 0.319 ± 0.0041
298.15 K, 101 kPa, x2 = 0.2929 | 0.319 ± 0.0041
298.15 K, 101 kPa, x2 = 0.3129 | 0.32 ± 0.0041
298.15 K, 101 kPa, x2 = 0.3245 | 0.3205 ± 0.0041
298.15 K, 101 kPa, x2 = 0.3582 | 0.323 ± 0.0041
298.15 K, 101 kPa, x2 = 0.3665 | 0.3245 ± 0.0041
298.15 K, 101 kPa, x2 = 0.3904 | 0.325 ± 0.0041
298.15 K, 101 kPa, x2 = 0.3907 | 0.325 ± 0.0041
298.15 K, 101 kPa, x2 = 0.4267 | 0.3275 ± 0.0042
298.15 K, 101 kPa, x2 = 0.4279 | 0.328 ± 0.0042
298.15 K, 101 kPa, x2 = 0.4662 | 0.331 ± 0.0042
298.15 K, 101 kPa, x2 = 0.4687 | 0.331 ± 0.0042
298.15 K, 101 kPa, x2 = 0.5072 | 0.3345 ± 0.0042
298.15 K, 101 kPa, x2 = 0.5084 | 0.3345 ± 0.0042
298.15 K, 101 kPa, x2 = 0.5516 | 0.339 ± 0.0043
298.15 K, 101 kPa, x2 = 0.5526 | 0.338 ± 0.0043
298.15 K, 101 kPa, x2 = 0.5986 | 0.344 ± 0.0043
298.15 K, 101 kPa, x2 = 0.5994 | 0.344 ± 0.0043
298.15 K, 101 kPa, x2 = 0.6496 | 0.35 ± 0.0044
298.15 K, 101 kPa, x2 = 0.6507 | 0.35 ± 0.0044
298.15 K, 101 kPa, x2 = 0.6856 | 0.3545 ± 0.0045
298.15 K, 101 kPa, x2 = 0.6881 | 0.355 ± 0.0045
298.15 K, 101 kPa, x2 = 0.7266 | 0.3595 ± 0.0045
298.15 K, 101 kPa, x2 = 0.728 | 0.36 ± 0.0045
298.15 K, 101.33 kPa, x1 = 0.1059 | 0.3792 ± 0.0058
298.15 K, 101.33 kPa, x1 = 0.2067 | 0.3658 ± 0.0056
298.15 K, 101.33 kPa, x1 = 0.302 | 0.358 ± 0.0056
298.15 K, 101.33 kPa, x1 = 0.406 | 0.3485 ± 0.0055
298.15 K, 101.33 kPa, x1 = 0.5051 | 0.3409 ± 0.0054
298.15 K, 101.33 kPa, x1 = 0.6064 | 0.3305 ± 0.0053
298.15 K, 101.33 kPa, x1 = 0.704 | 0.3227 ± 0.0052
298.15 K, 101.33 kPa, x1 = 0.8008 | 0.3123 ± 0.0051
298.15 K, 101.33 kPa, x1 = 0.8993 | 0.3075 ± 0.005

CCOC(=O)CC + CCCCCCC
viscosity [mPa·s], 101.3 kPa
Conditions | 308.15 K | 318.15 K
x1 = 0.0514 | 0.356 ± 0.004 | 0.325 ± 0.003
x1 = 0.0967 | 0.36 ± 0.004 | 0.329 ± 0.003
x1 = 0.2165 | 0.369 ± 0.004 | 0.341 ± 0.003
x1 = 0.3027 | 0.376 ± 0.004 | 0.35 ± 0.004
x1 = 0.4024 | 0.386 ± 0.004 | 0.36 ± 0.004
x1 = 0.5033 | 0.396 ± 0.004 | 0.372 ± 0.004
x1 = 0.588 | 0.406 ± 0.004 | 0.383 ± 0.004
x1 = 0.7003 | 0.421 ± 0.004 | 0.397 ± 0.004
x1 = 0.7994 | 0.435 ± 0.004 | 0.408 ± 0.004
x1 = 0.9003 | 0.45 ± 0.004 | 0.421 ± 0.004
x1 = 0.9484 | 0.458 ± 0.004 | 0.428 ± 0.004

C=CC(=O)OC + CCCCCCCCCC
viscosity [mPa·s], 100 kPa
Conditions | x1 = 0.1092 | x1 = 0.2047 | x1 = 0.3019 | x1 = 0.4034 | x1 = 0.5015 | x1 = 0.5969 | x1 = 0.6987 | x1 = 0.7998 | x1 = 0.8966
303.15 K | 0.733 ± 0.073 | 0.683 ± 0.068 | 0.638 ± 0.064 | 0.595 ± 0.06 | 0.561 ± 0.056 | 0.532 ± 0.053 | 0.506 ± 0.051 | 0.483 ± 0.048 | 0.462 ± 0.046
308.15 K | 0.668 ± 0.067 | 0.625 ± 0.063 | 0.585 ± 0.059 | 0.548 ± 0.055 | 0.519 ± 0.052 | 0.495 ± 0.05 | 0.474 ± 0.048 | 0.456 ± 0.046 | 0.437 ± 0.044
313.15 K | 0.644 ± 0.065 | 0.604 ± 0.061 | 0.566 ± 0.057 | 0.53 ± 0.053 | 0.501 ± 0.05 | 0.478 ± 0.048 | 0.457 ± 0.046 | 0.438 ± 0.044 | 0.42 ± 0.042

CC(C)CO + CCCCCCCCCC
viscosity [mPa·s], 100 kPa
Conditions | x2 = 0.1004 | x2 = 0.1999 | x2 = 0.3 | x2 = 0.3999 | x2 = 0.5002 | x2 = 0.5996 | x2 = 0.7006 | x2 = 0.8 | x2 = 0.9
293.15 K | 2.872 ± 0.062 | 2.191 ± 0.047 | 1.749 ± 0.038 | 1.456 ± 0.031 | 1.254 ± 0.027 | 1.117 ± 0.024 | 1.024 ± 0.022 | 0.966 ± 0.021 | 0.933 ± 0.02
298.15 K | 2.471 ± 0.053 | 1.906 ± 0.041 | – | – | 1.131 ± 0.024 | – | 0.941 ± 0.02 | 0.893 ± 0.019 | 0.863 ± 0.019
303.15 K | 2.139 ± 0.046 | 1.673 ± 0.036 | 1.368 ± 0.029 | 1.165 ± 0.025 | 1.027 ± 0.022 | 0.932 ± 0.02 | 0.869 ± 0.019 | 0.828 ± 0.018 | 0.803 ± 0.017
308.15 K | 1.863 ± 0.04 | 1.476 ± 0.032 | 1.221 ± 0.026 | 1.051 ± 0.023 | 0.937 ± 0.02 | 0.857 ± 0.018 | 0.806 ± 0.017 | 0.771 ± 0.017 | 0.75 ± 0.016
313.15 K | 1.632 ± 0.035 | 1.309 ± 0.028 | 1.095 ± 0.024 | 0.954 ± 0.021 | 0.859 ± 0.019 | 0.793 ± 0.017 | 0.749 ± 0.016 | 0.72 ± 0.016 | 0.702 ± 0.015
318.15 K | 1.436 ± 0.031 | 1.167 ± 0.025 | 0.989 ± 0.021 | 0.871 ± 0.019 | 0.791 ± 0.017 | 0.736 ± 0.016 | 0.699 ± 0.015 | 0.674 ± 0.015 | 0.66 ± 0.014
323.15 K | 1.272 ± 0.027 | 1.046 ± 0.022 | 0.897 ± 0.019 | 0.798 ± 0.017 | 0.732 ± 0.016 | 0.686 ± 0.015 | 0.654 ± 0.014 | 0.634 ± 0.014 | 0.622 ± 0.013
